Test results as given in patent US8409550B2, “Method for treating skin with retinoids and retinoid boosters” (Unilever Home & Personal Care, USA, Division of Conopco, …, priority 2000, dated 2013).
Several values for one entry are separate records, joined by “and”; a condition that tells them apart may be missing. Equal entries are not always repeated. Where two headings read alike, the source gives them in different places.

Key:
[1] = molecular target: transglutaminase (TGase I); assay: Transglutaminase (Tgase) ELISA assay in cultured keratinocytes with retinol and boosters; format: cell-based, human; settings: for IC20: IC20 (80% of control); for TG as % C, Compd 3: Compound 3 alone; for TG as % C, Compd 3 / TG as % C Compd 1 / TG as % C Compd 2: concentration one log below IC20; for Tgase levels (Mean): with 10^-7 M retinol
Protocol: For this reason, a transalutaminase (Tgase) assay was utilised.
Thus TGase I is a useful marker of epidermal keratinocyte differentiation with high TGase I levels indicating a more differentiated state. An ELISA based TGase I assay, using a TGase I antibody, was used to assess the state of differentiation of the cultured keratinocytes in the examples that follow.
Keratinocytes (cultured as described above) were plated in 96 well plates at a density of 4,000-5,000 cells per well in 200 μl media. After incubation for two to three days, or until cells are ˜50% confluent, the media was changed to media containing test compounds (five replicates per test). The cells were cultured for a further 96 hours after which time the media was aspirated and the plates stored at −70° C. Plates were removed from the freezer, and the cells were washed twice with 200 μl of 1×PBS. The cells were incubated for one hour at room temperature (R/T) with TBS/5% BSA (wash buffer, bovine serum albumin). Next the TGase primary antibody was added: 50 μl of monoclonal anti-Tgase I Ab B.C. diluted 1:2000 in wash buffer. The primary antibody was incubated for 2 hours at 37° C. and then rinsed 6× with wash buffer. Cells were then incubated with 50 μl of secondary antibody (Fab fragment, peroxidase conjugated anti-mouse IgG obtaining from Amersham) diluted 1:4,000 in wash buffer for two hours at 37° C., then rinsed three times with wash buffer. Following the rinse with washing buffer, the cells were rinsed 3× with PBS. For colourimetric development, the cells were incubated with 100 μl substrate solution (4 mg o-phenylenediamine and 3.3 μl 30% H2O2 in 10 ml 0.1M citrate buffer pH 5.0) for exactly five minutes, R/T, in darkness (under aluminum foil). The reaction was stopped by the addition of 50 μl 4 N H2SO4. […] Out of the five replicates, four were treated with both antibodies, the fifth one was use as a Tgase background control. Tgase levels were determined and expressed as percentage control.
A suspension of keratinocytes was prepared at a concentration of 3000 cells/200 μl/well in KGM medium (Used 3×10^5 cells/12 ml media in each microtitre plate)
200 μl of the keratinocyte suspension was transferred into each of the inner 60 wells only.
Each plate was incubated at 37° C. and 5% CO2 for 3 days or until cells are ˜50% confluent.
Stock solutions of the samples were prepared in DMSO.
The samples were diluted to desired concentration with the final assay concentration of DMSO being 0.1%.

ARAT = assay: Assay for ARAT activity, bovine RPE microsomes (to identify B1); format: biochemical; settings: for % Inhibition ARAT (100 jm): compound 100 jm
Protocol: (§1) 2.1 Isolation of RPE Microsomes (Modified from (1))
(§2) 50 frozen hemisected bovine eyecups, with the retina and aqueous humor removed were obtained from W. L. Lawson Co., Lincoln, Nebr., USA. The eyes were thawed overnight and the colored iridescent membrane was removed by peeling with forceps. Each eyecup was washed with 2× 0.5 mL cold buffer (0.1M PO4/1 mM DTT/0.25N sucrose, pH 7) by rubbing the darkly pigmented cells with an artist's brush or a rubber policeman. The cell suspension was added to the iridescent membranes and the suspension was stirred for several minutes in a beaker with a Teflon stir bar.
(§3) The cell homogenate was centrifuged for 30 min. at 20,000 g (Sorvaal model RC-5B centrifuge with an SS34 rotor in 2.5×10 cm tubes at 14,000 RPM). The resulting supernatant was subjected to further centrifugation for 60 min. at 150,000 g (Beckman model L80 Ultracentrifuge with an SW50.1 rotor in 13×51 mm tubes at 40,000 RPM). The resulting pellets were dispersed into ˜5 mL 0.1M PO4/5 mM DTT, pH 7 buffer using a Heat Systems Ultrasonics, Inc. model W185D Sonifier Cell Disrupter, and the resulting microsomal dispersion was aliquoted into small tubes and stored at −70° C. The protein concentrations of the microsomes were determined using the BioRad Dye binding assay, using BSA as a standard.
(§4) 2.3 Assay for ARAT and LRAT Activity (to Identify B1)
(§5) The procedure below was a modification of a method described in the literature (2). The following buffer was prepared and stored at 4° C.: 0.1M PO4 5 mM dithiothreitol, pH 7.0 (PO4/DTT). On the day of the assay, 2 mg BSA per mL of buffer was added to give a PO4/DTT/BSA working buffer. 1 mM retinol substrate was prepared in acetonitrile and stored in amber bottles under nitrogen gas at −20° C. Solutions of 4 mM Palmitoyl-CoA in working buffer (stored in aliquots) and 4 mM dilauroyl phosphatidyl choline in ethanol were prepared and stored at −20° C. Inhibitors were prepared as 10 mM stock solutions in H2O, ethanol, acetonitrile or DMSO. The quench solution was prepared using pure ethanol containing 50 μg/mL butylated hydroxytoluene (BHT), and a hexane solution containing 50 μg/mL BHT was used for the extractions.
(§6) The mixture was incubated for 5 min. at 37° C. to equilibrate the reaction temperature and then 5 μL 1 mM retinol was added. The vials were capped, vortexed for 5 seconds and incubated for 30-90 minutes at 37° C. The reaction was quenched by adding 0.5 mL ethanol/BHT. The retinoids were extracted by adding 3 mL hexane/BHT, vortexing the tubes for several seconds several times and centrifuging the tubes at low speed for 5 min. to quickly separate the layers. The upper hexane layer was removed into a clean vial, and the aqueous layer re-extracted with another 3 mL hexane/BHT, as described above. The hexane layers were combined, and the hexane evaporated by drying at 37° C. under a stream of nitrogen gas on a heated aluminum block. The dried residue was stored at −20° C. until HPLC analysis. The amount of retinyl palmitate and retinyl laurate was quantitated for ARAT and LRAT activity, respectively, by integration of the HPLC signal as described below.
(§7) Note that the incubation solution contains 40 μM acyl donor, 100 μM or less inhibitor, 10 uM retinol, approximately 30 μg/mL microsomal protein, and nearly 0.17 PO4/pH 7/5 mM DTT/2 mg/mL BSA. All steps subsequent to the addition of retinol were done in the dark or under amber lights.
(§8) Samples for retinoid quantitation by HPLC were prepared by dissolving the residue in each vial with 100 μL of methanol. […] Aliquots of 60 μL were injected immediately and analysed for retinoid content.
(§9) Two HPLC protocols were used for retinoid analysis.
(§10) These protocols were selected based on their ability to clearly resolve pertinent retinoid acids, alcohols, aldehydes, and/or esters for each assay and relative quickness of separation.

LRAT = molecular target: T1, LRAT (Bos taurus, UniProt Q9BGL2); assay: Assay for LRAT activity, bovine RPE microsomes (to identify B1); format: biochemical; settings: compound 100 jm
T1 construct: followed by approximately 15 μg of RPE microsomal protein; tissue W. L. Lawson Co., Lincoln, Nebr., USA (eyecups); host or cells: bovine retinal pigment epithelium microsomes
T1 sequence (Q9BGL2 1-230): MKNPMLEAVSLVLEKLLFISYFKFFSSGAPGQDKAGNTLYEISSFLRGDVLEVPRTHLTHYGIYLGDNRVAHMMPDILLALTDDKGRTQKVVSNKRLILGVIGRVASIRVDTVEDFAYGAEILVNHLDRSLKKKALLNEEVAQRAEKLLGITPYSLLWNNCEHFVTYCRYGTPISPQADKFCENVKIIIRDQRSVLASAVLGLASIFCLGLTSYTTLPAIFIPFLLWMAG
Protocol: as §1, §2, §3, §4, §5, §6, §7, §8, §9, §10

[2] = B1 table, booster concentration which with 10^−7 M retinol inhibits TGase by 50%, same values in the 19th table (Molar), read-out: Overall TG (IC 50)
[3] = compound tested individually in the presence of 10^-7 M retinol
[4] = Tgase inhibition, compound tested individually in the presence of 10^-7 M retinol, read-out: IC50
[5] = in the presence of 10^-7M retinol
[6] = Compound 1 alone, in the presence of 10^-7M retinol
[7] = Compound 2 alone, in the presence of 10^-7M retinol

For `CCCCCCCCCCC(O)C(=O)NCCO` (stereo not drawn) [Hydroxyethyl-2-Hydroxy-C12 Amide, N-Hydroxyethyl-2-hydroxydodecyl amide], the IC50 [1, 2] was 32.9 µM, the IC20 [1, 3] was 24 µM and the IC50 [1, 4] was 32.9 µM.

`Oc1ccc2ccccc2n1` [Hydroxyquinoline (Carbostyril), 2-Hydroxyquinoline(Carbostyril)] was tested, and the IC50 ([1]; B5 table, with 10^−7 M retinol, read-out: Overall TG (IC 50)) was 364 µM, the “TG as % C, Compd 3” value [1, 5] was 95 % C and the IC20 [1, 3] was 170 µM. The IC50 [1, 4] was 364 µM.

`CCN(CC)CC(=O)Nc1c(C)cccc1C` [Lidocaine, reference compound] was tested, and the “% Inhibition ARAT (100 jm)” value (ARAT) was 12%.

Compound Alpha-Ionone has an IC50 [1, 2] of 927 µM, an IC20 [1, 3] of 142 µM and an IC50 [1, 4] of 927 µM. The “TG as % C Compd 1” value ([1]; compound 1 alone, with retinol) was 101 % C.

In the case of `CCCCCCCCCCCCCCCC(=O)NCCO` [Palmitamide Monoethanolamide], the “TG as % C, Compd 3” value [1, 5] is reported as 95 % C.

`CCCCCCCCCCCC(=O)N(C)CC(=O)O` [Lauroyl Sarcosine] was tested, and the “% Inhibition ARAT (100 jm)” value (ARAT) was 20%.

`O=c1c2cccc3cccc(c32)c2nc3ccccc3n12` [7H-Benzimidazo[2,1-a]Benz[de]-isoquinolin-7-one] was tested, and the “TG as % C, Compd 3” value [1, 5] was 94 % C and the IC20 [1, 3] was 0.469 µM.

`CC(C)=CCC/C(C)=C/CC/C(C)=C/CC/C(C)=C/CO` [Geranyl Geraniol] was tested, and the “% Inhibition ARAT (10 jm)” value (ARAT; compound 10 jm) was 38% +/− 12 and the “% Inhibition ARAT (100 jm)” value (ARAT) was 81% +/− 6.

Work on `C=CC(C)(O)CCC=C(C)C` (stereo not drawn) [Linalool] yielded an inhibition at 100 µM (LRAT) of 0%.

For `CCCCCCCC(=O)OC[C@H](COP(=O)(O)OCCN)OC(=O)CCCCCCC` [1,2-dioctanoyl-sn-glycero-3-phosphoethanolamide], the “TG as % C Compd 1” value [1, 6] was 81 % C, the “Tgase levels (Mean)” value ([1]; booster 1.6E−04 Molar) was 58.1 % of control and the “Tgase levels (Mean)” value ([1]; booster 1.78E−05 Molar) was 104 % of control. The “Tgase levels (Mean)” value ([1]; booster 1.79E−9 Molar) was 82 % of control, the “Tgase levels (Mean)” value ([1]; booster 1.98E−06 Molar) was 110 % of control and the “Tgase levels (Mean)” value ([1]; booster 2.19E−09 Molar) was 88.6 % of control. The “Tgase levels (Mean)” value ([1]; booster 4.39E−08 Molar) was 127.3 % of control, the “Tgase levels (Mean)” value ([1]; booster 5.33E−05 Molar) was 95.4 % of control and the “Tgase levels (Mean)” value ([1]; booster 5.93E−06 Molar) was 129 % of control. The “Tgase levels (Mean)” value ([1]; booster 6.58E−07 Molar) was 92.8 % of control, the “Tgase levels (Mean)” value ([1]; booster 8.78E−09 Molar) was 119 % of control and the “TG as % C Compd 1” value ([1]; compound 1 alone, with retinol) was 123 % C and 95 % C and 106 % C.

In the case of `CC(=O)c1cc2c(cc1C)C(C)(C)C(C)CC2(C)C` (stereo not drawn) [Tonalid], the “% Inhibition ARAT (100 jm)” value (ARAT) is reported as 50%.

With Ethyl Saffranate the “% Inhibition LRAT (100 jm)” value (LRAT) was 49%.

In the case of `CCCCC/C=C\C/C=C\C/C=C\C/C=C\CCCC(=O)[O-].[Na+]` [Arachidonic Acid (Na+ salt)], the “TG as % C, Compd 3” value [1, 5] is reported as 78 % C.

In the case of `COc1cc(NS(C)(=O)=O)ccc1Nc1c2ccccc2nc2ccccc12` [Amsacrine, reference compound], the “TG as % C Compd 1” value [1, 6] is reported as 79 % C, the “TG as % C Compd 2” value [1, 7] is reported as 79 % C and the IC20 [1, 3] is reported as 3.3 µM. The “TG as % C Compd 1” value ([1]; compound 1 alone, with retinol) was 102 % C.

In the case of `CCCCCCCCCCCCCC(=O)N(C)CC(=O)O` [Myristoyl Sarcosine], the “% Inhibition ARAT (100 jm)” value (ARAT) is reported as 41% +/− 14.

In the case of `CCCC(O)CCC1C(C)CCCC1(C)C` (stereo not drawn) [Timberol], the “% Inhibition LRAT (100 jm)” value (LRAT) is reported as 33%.

In the case of `O=C1C[C@@H](c2ccc(O)cc2)Oc2cc(O)cc(O)c21` [Naringenin], the “% Inhibition ARAT (100 jm)” value (ARAT) is reported as 33%, the “TG as % C, Compd 3” value [1, 5] is reported as 94 % C and the “TG as % C Compd 1” value ([1]; compound 1 alone, with retinol) is reported as 95 % C.

In the case of `Nn1nnc2ccccc21`, the “TG as % C Compd 2” value [1, 7] is reported as 105 % C, the “TG as % C, Compd 3” value [1, 5] is reported as 105 % C and the “TG as % C Compd 2” value ([1]; compound 2 alone, with retinol) is reported as 105 % C and 126 % C. The “TG as % C Compd 2” value ([1]; compound 2 alone, with retinol, listed as Aminobenzotriazole) was 98 % C.

With `CC12CCC(C1)C(C)(C)C2O` (stereo not drawn) [Fenchyl Alcohol] the “% Inhibition ARAT (100 jm)” value (ARAT) was 12%.

In the case of `CCCCC/C=C/C/C=C/CCCCCCCC(=O)NC(C)c1ccccc1` (stereo not drawn) [Melinamide, reference compound], the “% Inhibition ARAT (100 jm)” value (ARAT) is reported as 64% +/− 15.

For `CCCCC/C=C\C/C=C\CCCCCCCC(=O)NCCO` [Linoleoyl Monoethanolamide], the IC50 [1, 2] was 16.1 µM, the IC20 [1, 3] was 14.8 µM and the IC50 [1, 4] was 16.1 µM.

`CC(C)=CCCC(C)CCO` (stereo not drawn) [Citronellol] was tested, and the “% Inhibition ARAT (100 jm)” value (ARAT) was 30%.

In the case of `CCCCCCCCCCCCCCCC(=O)O` [Hexadecanoic acid], the “TG as % C Compd 2” value ([1]; compound 2 alone, with retinol) is reported as 95 % C.

In the case of `CCCCCC(N)=O` [Hexanoamide], the “% Inhibition ARAT (100 jm)” value (ARAT) is reported as 20%.

With `O=c1ccc2ccccc2o1` [Coumarin] the “TG as % C, Compd 3” value [1, 5] was 80 % C and the “TG as % C Compd 2” value ([1]; compound 2 alone, with retinol) was 96 % C.

With […]-Damascone the “TG as % C, Compd 3” value [1, 5] was 89 % C.

With `C/C=C\C(=O)C1C(C)=CCCC1(C)C` (stereo not drawn) [a-Damascone] the “TG as % C, Compd 3” value [1, 5] was 89 % C.

For Oleyl Betaine, the “% Inhibition ARAT (100 jm)” value (ARAT) was 47%, the IC50 [1, 2] was 28 µM and the “TG as % C Compd 1” value [1, 6] was 62 % C. For the same compound, the IC20 [1, 3] was 10.8 µM, the IC50 [1, 4] was 28 µM and the “TG as % C Compd 1” value ([1]; compound 1 alone, with retinol, listed as Oleoyl beatine) was 96 % C. The “TG as % C Compd 1” value ([1]; compound 1 alone, with retinol, listed as Oleoyl betaine) was 99.5 % C.
